From ChEMBL document CHEMBL1201862, “PubChem BioAssay data set” (2004)
Calls of active or inactive are those of the source.

What was measured:
[1] = HIV-1 Vif–A3G interaction blockers – biochemical, TR-FRET, GST-Vif 1-94, biotin-A3G peptide, dose response retest, primary screen (AID 1117319); format: functional;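 note: TR-FRET signal of purified GST-Vif binding a biotinylated A3G peptide; inhibitors lower the FRET signal by blocking Vif and A3G binding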
[2] = target: Peroxisome proliferator-activated receptor gamma/Nuclear receptor coactivator 1 (Homo sapiens, UniProt P37231); format: functional;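 note: agonist potency as compounds enhance coactivator SRC-1 recruitment to PPARgamma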
[3] = target: Peroxisome proliferator-activated receptor gamma/Nuclear receptor coactivator 3 (Homo sapiens, UniProt P37231); format: functional;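 note: agonist potency for raising coactivator recruitment to the receptor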
[4] = target: Peroxisome proliferator-activated receptor gamma/Nuclear receptor coactivator 2 (Homo sapiens, UniProt P37231); format: functional;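 note: agonist potency for raising coactivator recruitment to the receptor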
[5] = toxicity toward HepG2 liver cells – cell-based, plate reader, cherry-pick, antagonist series, cytotoxicity control, dose response (AID 743416); format: functional
[6] = blockade of melanocortin 4 receptor signaling – cell-based, plate reader, cherry pick, counter-screen for LGR2 antagonist project, dose response (AID 743444); format: functional;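 note: transfected HEK 293 cells stimulated with alpha-MSH peptide; potency of inhibitors of the alpha-MSH evoked signal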
[7] = blockers of bursicon-stimulated LGR2 cAMP reporter – cell-based, HEK293, CRE-luciferase reporter, cherry pick, set 2, dose response (AID 743343); format: functional;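 note: transfected cells were stimulated with diluted bursicon conditioned medium after compound addition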
[8] = viability of uninfected HEp-2 cells – cell-based, HTS, cytotoxicity control for RSV inhibitor project, dose response (AID 2410); format: functional; details: human respiratory syncytial virus
Vero [9] = assay: cells; format: functional, cell-based; details: Chlorocebus sabaeus
Vero [10] = assay: cells; format: functional; details: Chlorocebus sabaeus
[11] = target: T1, Methionyl-tRNA synthetase, putative (Trypanosoma brucei brucei, UniProt Q38C91); format: functional, Trypanosoma brucei brucei strain 927/4 GUTat10.1;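 note: Read-out by fluorescence polarization, run as a confirmatory high-throughput counterscreen; potency of MetRS inhibitors measured by reduced AMP formation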
T1 sequence (Q38C91 whole entry): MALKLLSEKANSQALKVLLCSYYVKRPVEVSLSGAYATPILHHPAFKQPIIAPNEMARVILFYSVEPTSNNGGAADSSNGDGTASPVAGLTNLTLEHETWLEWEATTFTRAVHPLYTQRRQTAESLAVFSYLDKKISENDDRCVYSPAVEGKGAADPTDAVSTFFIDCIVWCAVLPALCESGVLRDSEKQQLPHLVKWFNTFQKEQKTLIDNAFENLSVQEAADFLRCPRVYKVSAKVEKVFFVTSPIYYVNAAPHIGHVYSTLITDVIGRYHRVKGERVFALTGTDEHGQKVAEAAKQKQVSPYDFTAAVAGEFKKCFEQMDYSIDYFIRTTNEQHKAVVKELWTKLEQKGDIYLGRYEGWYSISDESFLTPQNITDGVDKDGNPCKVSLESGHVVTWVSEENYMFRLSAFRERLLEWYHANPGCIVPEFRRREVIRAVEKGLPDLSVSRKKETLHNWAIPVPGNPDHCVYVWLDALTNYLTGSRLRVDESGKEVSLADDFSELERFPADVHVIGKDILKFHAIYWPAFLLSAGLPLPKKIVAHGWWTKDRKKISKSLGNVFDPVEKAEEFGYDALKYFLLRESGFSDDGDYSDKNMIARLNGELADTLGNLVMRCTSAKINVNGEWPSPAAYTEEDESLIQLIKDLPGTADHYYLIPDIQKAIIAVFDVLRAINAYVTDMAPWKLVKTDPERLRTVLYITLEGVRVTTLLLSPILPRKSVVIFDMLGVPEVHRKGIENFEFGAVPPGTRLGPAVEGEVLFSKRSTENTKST

[12] = Counterscreen for inhibitors of Trypanosoma brucei methionyl tRNA synthetase (MetRS): Luminescence-based cell-based high throughput dose response assay to identify compounds that are cytotoxic to Jurkat human T lymphocyte cells.; format: functional
[13] = target: Voltage-dependent T-type calcium channel subunit alpha-1H (Homo sapiens, UniProt O95180); format: functional;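 note: channel activity triggered by adding a high calcium stimulation buffer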
Beta-galactosidase = Beta-galactosidase (Escherichia coli, UniProt Q8VNN2); assay: Dose response counterscreen for EBI2 assay utilizing the enzyme, b-galactosidase.; format: functional
[14] = target: T2, DNA repair and recombination protein RAD54-like (Homo sapiens, UniProt Q92698); assay: RAD54 Holliday junction migration blockers – biochemical, fluorescence, cherry-picked samples, dose series, confirmation (AID 651657); format: functional
T2 sequence (Q92698 whole entry): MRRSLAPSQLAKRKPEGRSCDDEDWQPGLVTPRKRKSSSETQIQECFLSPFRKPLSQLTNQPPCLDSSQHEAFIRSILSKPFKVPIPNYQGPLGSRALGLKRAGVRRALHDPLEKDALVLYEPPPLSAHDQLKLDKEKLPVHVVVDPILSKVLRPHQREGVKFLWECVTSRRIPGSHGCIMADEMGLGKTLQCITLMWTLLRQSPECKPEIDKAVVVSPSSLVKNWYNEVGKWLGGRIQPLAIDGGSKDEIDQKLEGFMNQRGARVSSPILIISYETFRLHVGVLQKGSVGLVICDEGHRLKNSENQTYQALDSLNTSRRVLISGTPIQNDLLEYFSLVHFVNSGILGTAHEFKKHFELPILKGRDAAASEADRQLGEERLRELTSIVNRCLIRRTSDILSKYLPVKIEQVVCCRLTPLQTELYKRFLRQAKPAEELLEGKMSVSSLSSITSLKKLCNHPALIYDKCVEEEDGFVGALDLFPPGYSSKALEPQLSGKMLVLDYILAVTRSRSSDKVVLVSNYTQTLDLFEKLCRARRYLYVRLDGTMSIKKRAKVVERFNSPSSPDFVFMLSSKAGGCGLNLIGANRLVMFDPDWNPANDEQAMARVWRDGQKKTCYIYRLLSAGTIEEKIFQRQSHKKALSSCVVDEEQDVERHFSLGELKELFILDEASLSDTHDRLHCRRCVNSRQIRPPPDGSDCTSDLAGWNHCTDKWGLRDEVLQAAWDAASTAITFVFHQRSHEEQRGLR

[15] = target: T3, Ubiquitin-conjugating enzyme E2 N (Homo sapiens, UniProt P61088); format: functional;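 note: Dose-response confirmation in a TR-FRET assay detecting UBC13-driven polyubiquitin chain formation, inhibition measured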
T3 sequence (P61088 whole entry): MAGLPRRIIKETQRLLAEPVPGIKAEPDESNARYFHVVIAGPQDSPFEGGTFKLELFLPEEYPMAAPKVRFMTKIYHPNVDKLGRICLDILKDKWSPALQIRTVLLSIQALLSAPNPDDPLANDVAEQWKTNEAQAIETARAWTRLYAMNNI

[16] = target: T4, DNA repair protein RAD52 homolog (Homo sapiens, UniProt P43351); format: functional, biochemical
T4 sequence (P43351 whole entry): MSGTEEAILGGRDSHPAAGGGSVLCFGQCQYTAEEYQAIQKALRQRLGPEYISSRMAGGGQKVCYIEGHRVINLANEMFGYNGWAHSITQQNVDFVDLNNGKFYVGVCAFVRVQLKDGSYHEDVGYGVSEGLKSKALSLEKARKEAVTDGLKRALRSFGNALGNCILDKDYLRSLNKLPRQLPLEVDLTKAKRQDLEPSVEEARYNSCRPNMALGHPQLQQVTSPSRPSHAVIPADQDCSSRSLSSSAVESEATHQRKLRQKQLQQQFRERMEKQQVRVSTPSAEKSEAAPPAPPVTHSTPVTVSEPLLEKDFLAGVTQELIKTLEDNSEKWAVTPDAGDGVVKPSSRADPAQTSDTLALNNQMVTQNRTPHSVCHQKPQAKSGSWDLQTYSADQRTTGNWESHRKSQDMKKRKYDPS

Cytochrome P450 3A4 = Cytochrome P450 3A4 (Homo sapiens, UniProt P08684);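 note: CYP3A4 tested as one member of a cytochrome P450 panel screen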
Estrogen receptor beta [17] = target: T5, Estrogen receptor beta (Homo sapiens, UniProt Q92731); assay: blockers of SRC-3 recruitment to ERβ – biochemical, ELISA, streptavidin-HRP readout, orthogonal assay, confirmation (AID 1060)
Cytochrome P450 2C9 = Cytochrome P450 2C9 (Homo sapiens, UniProt P11712)
Estrogen receptor = target: T6, Estrogen receptor (Homo sapiens, UniProt P03372);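 note: potency for inhibiting coactivator peptide recruitment to the receptor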
T6 sequence (P03372 whole entry): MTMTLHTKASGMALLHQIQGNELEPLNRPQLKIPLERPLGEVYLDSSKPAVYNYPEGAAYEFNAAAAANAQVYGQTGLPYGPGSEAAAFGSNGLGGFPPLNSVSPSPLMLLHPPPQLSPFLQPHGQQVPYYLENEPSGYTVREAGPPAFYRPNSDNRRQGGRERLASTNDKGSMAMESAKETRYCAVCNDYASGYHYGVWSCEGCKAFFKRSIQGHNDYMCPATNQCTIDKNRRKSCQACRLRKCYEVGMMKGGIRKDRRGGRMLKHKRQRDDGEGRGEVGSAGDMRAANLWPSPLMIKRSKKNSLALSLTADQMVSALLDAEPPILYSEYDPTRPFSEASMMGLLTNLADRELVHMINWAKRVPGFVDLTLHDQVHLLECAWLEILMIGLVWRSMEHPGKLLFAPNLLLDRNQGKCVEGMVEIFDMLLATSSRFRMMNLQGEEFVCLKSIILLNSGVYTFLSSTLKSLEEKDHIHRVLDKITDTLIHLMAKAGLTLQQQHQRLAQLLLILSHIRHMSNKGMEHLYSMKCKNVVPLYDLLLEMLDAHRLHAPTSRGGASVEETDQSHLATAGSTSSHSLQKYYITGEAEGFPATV

Estrogen receptor beta [18] = target: T5, Estrogen receptor beta
[19] = target: DNA dC->dU-editing enzyme APOBEC-3A (Homo sapiens, UniProt P31941); assay: Dose Response confirmation of small molecule APOBEC3A DNA Deaminase Inhibitors via a fluorescence-based single-stranded DNA deaminase assay. [Related pubchem assays (depositor defined):AID493011, AID493024]; format: functional
[20] = target: DNA dC->dU-editing enzyme APOBEC-3G (Homo sapiens, UniProt Q9HC16); format: functional;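 note: Dose-response counterscreen measuring inhibition of APOBEC3G DNA deaminase activity, run while confirming APOBEC3A inhibitors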
[21] = fluconazole-exposed Candida albicans growth modulators – fluorescence, retest, confirmation (AID 2467); format: functional, cell-based
[22] = NIH-3T3 fibroblast cytotoxicity, dose response, cytotoxicity control, cell-based, fluorescence, Alamar Blue, secondary assay (AID 2327); format: functional;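 note: NIH-3T3 mouse fibroblasts cultured with fluconazole at 8 µg/mL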
[23] = intracellular Trypanosoma cruzi inhibitors in host cells – cell-based, plate reader, cherry-pick samples, set 3, dose response (AID 651818); format: functional;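 note: compounds incubated with infected cells for about four days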

Sequence of Beta-galactosidase (Q8VNN2 whole entry): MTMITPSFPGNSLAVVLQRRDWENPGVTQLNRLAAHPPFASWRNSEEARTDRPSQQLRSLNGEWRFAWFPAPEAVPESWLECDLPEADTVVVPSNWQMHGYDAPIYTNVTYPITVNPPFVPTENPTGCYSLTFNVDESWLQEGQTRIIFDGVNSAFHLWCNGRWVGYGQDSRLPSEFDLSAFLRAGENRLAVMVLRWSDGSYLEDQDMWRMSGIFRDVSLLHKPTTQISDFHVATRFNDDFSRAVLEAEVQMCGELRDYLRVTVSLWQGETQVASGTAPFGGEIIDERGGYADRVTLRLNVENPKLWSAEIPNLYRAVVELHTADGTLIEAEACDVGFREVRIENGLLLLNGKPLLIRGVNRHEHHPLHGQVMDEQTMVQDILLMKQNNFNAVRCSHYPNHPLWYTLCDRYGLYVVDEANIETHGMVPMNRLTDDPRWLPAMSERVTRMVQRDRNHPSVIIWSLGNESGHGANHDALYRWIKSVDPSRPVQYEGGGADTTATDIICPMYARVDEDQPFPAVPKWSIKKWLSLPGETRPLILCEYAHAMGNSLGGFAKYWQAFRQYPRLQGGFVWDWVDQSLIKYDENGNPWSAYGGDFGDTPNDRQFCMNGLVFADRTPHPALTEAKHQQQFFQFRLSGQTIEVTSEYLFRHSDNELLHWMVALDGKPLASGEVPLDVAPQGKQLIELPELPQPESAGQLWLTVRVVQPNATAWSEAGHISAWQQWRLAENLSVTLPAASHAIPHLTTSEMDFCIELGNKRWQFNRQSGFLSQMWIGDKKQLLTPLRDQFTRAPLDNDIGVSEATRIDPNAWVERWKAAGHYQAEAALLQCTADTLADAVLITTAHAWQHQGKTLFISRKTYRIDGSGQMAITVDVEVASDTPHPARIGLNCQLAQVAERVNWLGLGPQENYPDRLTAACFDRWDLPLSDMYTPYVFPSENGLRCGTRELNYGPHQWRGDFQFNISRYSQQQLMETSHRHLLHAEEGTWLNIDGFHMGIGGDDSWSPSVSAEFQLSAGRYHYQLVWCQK
T5 sequence (Q92731 whole entry): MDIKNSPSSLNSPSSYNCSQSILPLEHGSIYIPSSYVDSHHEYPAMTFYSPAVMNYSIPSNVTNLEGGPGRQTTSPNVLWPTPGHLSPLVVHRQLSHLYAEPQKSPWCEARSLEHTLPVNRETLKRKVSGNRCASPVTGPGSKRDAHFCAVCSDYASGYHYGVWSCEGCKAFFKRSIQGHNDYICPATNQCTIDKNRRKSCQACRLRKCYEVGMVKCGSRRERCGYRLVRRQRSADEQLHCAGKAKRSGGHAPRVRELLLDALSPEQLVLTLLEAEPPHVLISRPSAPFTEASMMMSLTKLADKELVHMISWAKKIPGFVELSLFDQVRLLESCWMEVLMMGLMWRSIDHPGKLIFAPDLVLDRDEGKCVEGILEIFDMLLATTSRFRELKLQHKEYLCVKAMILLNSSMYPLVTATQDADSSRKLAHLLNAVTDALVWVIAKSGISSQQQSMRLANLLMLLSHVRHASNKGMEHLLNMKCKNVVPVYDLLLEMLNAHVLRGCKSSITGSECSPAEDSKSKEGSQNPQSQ
Sequence of Peroxisome proliferator-activated receptor gamma/Nuclear receptor coactivator 3 (P37231 whole entry): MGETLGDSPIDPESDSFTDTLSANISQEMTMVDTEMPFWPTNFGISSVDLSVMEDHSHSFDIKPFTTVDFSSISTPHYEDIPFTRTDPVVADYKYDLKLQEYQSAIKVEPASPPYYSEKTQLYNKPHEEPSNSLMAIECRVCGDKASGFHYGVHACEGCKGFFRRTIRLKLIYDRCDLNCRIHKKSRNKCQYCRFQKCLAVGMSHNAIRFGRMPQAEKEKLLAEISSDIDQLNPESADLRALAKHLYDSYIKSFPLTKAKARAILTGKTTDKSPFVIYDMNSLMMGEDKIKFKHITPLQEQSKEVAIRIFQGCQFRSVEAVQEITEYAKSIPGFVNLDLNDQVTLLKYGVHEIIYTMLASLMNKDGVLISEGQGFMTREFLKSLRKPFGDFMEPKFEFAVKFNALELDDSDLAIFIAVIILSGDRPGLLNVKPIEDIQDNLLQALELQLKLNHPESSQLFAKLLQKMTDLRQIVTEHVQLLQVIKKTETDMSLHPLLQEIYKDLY
Sequence of Peroxisome proliferator-activated receptor gamma/Nuclear receptor coactivator 3 (Q9Y6Q9 whole entry, further chain): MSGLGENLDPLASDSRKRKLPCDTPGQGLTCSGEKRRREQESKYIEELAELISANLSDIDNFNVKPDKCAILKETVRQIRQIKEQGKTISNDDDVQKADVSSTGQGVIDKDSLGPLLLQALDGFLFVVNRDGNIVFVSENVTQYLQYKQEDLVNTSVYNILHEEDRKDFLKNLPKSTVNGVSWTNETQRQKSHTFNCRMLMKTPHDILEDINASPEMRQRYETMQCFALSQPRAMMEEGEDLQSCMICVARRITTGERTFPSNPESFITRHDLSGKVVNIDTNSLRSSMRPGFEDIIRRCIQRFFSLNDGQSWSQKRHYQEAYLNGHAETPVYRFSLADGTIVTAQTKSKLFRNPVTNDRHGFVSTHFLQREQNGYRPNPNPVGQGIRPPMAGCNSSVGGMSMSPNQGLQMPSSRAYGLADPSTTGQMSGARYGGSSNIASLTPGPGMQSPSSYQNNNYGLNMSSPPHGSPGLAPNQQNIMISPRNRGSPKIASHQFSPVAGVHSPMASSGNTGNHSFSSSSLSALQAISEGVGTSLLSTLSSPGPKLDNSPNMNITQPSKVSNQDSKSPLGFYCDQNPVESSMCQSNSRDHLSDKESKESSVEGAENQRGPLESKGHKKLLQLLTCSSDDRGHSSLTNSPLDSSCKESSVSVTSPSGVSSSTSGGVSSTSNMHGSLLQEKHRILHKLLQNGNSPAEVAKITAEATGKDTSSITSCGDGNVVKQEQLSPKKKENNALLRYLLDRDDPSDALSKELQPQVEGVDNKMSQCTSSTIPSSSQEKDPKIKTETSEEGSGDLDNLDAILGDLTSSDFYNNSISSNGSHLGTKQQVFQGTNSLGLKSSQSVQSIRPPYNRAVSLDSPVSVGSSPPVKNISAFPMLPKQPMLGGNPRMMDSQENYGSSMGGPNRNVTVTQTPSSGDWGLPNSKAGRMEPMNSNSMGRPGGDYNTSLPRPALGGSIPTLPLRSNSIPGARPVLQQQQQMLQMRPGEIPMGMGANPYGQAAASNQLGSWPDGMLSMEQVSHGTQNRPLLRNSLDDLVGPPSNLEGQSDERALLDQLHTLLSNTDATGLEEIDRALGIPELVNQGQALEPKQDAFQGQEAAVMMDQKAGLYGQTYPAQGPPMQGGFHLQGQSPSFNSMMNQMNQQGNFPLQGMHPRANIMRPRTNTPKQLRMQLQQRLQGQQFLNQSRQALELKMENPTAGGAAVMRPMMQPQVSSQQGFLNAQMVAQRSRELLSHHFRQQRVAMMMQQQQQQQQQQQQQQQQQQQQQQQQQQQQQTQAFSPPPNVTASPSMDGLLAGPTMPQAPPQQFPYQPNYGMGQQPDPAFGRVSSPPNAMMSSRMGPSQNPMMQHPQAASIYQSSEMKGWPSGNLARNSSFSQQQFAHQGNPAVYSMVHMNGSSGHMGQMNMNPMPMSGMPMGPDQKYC
Sequence of Cytochrome P450 3A4 (P08684 whole entry): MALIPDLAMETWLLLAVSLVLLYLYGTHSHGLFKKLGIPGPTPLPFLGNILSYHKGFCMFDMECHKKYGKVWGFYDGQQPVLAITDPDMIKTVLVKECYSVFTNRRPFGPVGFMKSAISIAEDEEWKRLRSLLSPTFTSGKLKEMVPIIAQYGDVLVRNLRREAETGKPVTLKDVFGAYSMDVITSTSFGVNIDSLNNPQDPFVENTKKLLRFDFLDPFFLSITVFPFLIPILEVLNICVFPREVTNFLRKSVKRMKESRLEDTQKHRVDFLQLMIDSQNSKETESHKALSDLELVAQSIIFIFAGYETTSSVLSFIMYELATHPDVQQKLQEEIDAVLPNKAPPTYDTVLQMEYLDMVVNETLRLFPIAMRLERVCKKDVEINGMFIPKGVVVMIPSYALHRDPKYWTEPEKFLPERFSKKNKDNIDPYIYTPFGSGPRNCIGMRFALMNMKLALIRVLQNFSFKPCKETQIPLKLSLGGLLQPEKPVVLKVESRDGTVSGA
Sequence of Cytochrome P450 2C9 (P11712 whole entry): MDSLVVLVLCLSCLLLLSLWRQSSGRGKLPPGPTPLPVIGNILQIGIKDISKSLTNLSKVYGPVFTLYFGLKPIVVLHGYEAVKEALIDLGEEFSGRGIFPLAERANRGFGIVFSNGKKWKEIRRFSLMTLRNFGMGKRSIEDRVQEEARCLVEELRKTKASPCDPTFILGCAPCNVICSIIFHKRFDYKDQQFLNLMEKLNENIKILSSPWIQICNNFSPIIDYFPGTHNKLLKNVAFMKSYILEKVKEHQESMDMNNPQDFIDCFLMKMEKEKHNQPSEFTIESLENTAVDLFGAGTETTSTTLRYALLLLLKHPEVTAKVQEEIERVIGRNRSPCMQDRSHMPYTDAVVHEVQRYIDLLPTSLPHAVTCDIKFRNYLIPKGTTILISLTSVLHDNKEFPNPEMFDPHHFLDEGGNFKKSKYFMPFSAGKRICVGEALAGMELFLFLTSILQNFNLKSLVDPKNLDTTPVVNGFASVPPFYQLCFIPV
Sequence of DNA dC->dU-editing enzyme APOBEC-3A (P31941 whole entry): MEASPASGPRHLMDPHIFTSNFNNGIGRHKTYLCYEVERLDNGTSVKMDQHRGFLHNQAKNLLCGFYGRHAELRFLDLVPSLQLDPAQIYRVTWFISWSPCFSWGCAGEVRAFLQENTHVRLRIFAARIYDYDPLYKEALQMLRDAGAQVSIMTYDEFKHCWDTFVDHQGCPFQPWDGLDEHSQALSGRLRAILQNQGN

CCOC(=O)CN1C(=O)C(Sc2n[nH]c(-c3ccccc3)n2)CCc2ccccc21 (centres undefined)
IC50 [1]: > 100 µM (active)

CCOC(=O)c1sc(NC(=O)CSc2nnnn2-c2ccc(C)c(C)c2)nc1C
EC50 [2]: > 79.4 µM (not active) | EC50 [3]: > 79.4 µM (not active) | EC50 [4]: 77.4 µM (not active)

CC1CCCN(c2ncnc3c2cnn3-c2ccccc2)C1 (centres undefined)
AC50 [5]: > 52 µM (inactive) | AC50 [6]: 6.32 µM (active) | AC50 [7]: 2.89 µM (active)

O=c1c2ccccc2nc(/C=C/c2ccccc2O)n1-c1ccccc1O
CC50 [8]: 8.96 µM (active) | IC50 (Vero [9]): > 25 µM (active) | CC50 (Vero [10]): 20.4 µM (active)

CCN(CC)CCN(Cc1cc2cc3c(cc2[nH]c1=O)OCCO3)C(=O)NC1CCCCC1
EC50 [2]: > 79.4 µM (not active) | EC50 [3]: > 79.4 µM (not active) | EC50 [4]: > 79.4 µM (not active)

Cc1csc(CNc2ncnc3ccc(-c4ccccc4Cl)cc23)c1
IC50 [11]: 97.8 µM (inactive) | IC50 [12]: 83.3 µM (inactive)

O=C(CCCOc1ccccc1)N1CCN(c2ccccc2)CC1
EC50 [13]: 13.9 µM (active)

Cc1[nH]c(-c2ccc(F)cc2)cc1C(=O)N1CCN(c2ccccc2F)CC1
IC50 (Beta-galactosidase): > 80 µM (inactive)

CC(C)n1c(CCC(=O)O)ccc1-c1ccccc1
IC50 [1]: > 100 µM (active)

Fc1ccccc1CSc1nc2ncc(Br)cc2[nH]1
EC50 [2]: 36.8 µM (not active) | EC50 [3]: 49.5 µM (not active) | EC50 [4]: 24.2 µM (not active) | IC50 [11]: 82.2 µM (inactive)

CCCCN(CC)CCNC(=O)c1cc2c(=O)n(C)c3ccccc3c2n1C
AC50 [14]: 32.3 µM (active) | IC50 [15]: > 20 µM (inactive)

N=c1c(C(=O)NCCN2CCOCC2)cc2c(=O)n3ccccc3nc2n1CCCN1CCOCC1
AC50 [14]: 11.5 µM (active) | AC50 [16]: 5.36 µM (active)

O=C(COc1ccc(Br)cc1)N1CCC(c2ccccc2)C1 (centres undefined)
IC50 (Beta-galactosidase): > 80 µM (inactive) | AC50 (Cytochrome P450 3A4): 28.2 µM (inconclusive)

Cc1ccc(C(C)C)c(OCCN(C)C)c1
IC50 [1]: > 100 µM (active)

O=C1NC(c2ccc(Br)cc2)Nc2sc3c(c21)CCC3 (centres undefined)
IC50 (Estrogen receptor beta [17]): < 0.023 µM (not active) | AC50 (Cytochrome P450 2C9): 6.31 µM (inconclusive) | AC50 (Cytochrome P450 3A4): 28.2 µM (inconclusive) | IC50 (Estrogen receptor): 19.4 µM (active) | IC50 (Estrogen receptor beta [18]): > 50 µM (not active)

Cc1ccc(C)c(SCC(=O)OCC(=O)c2ccco2)c1
IC50 (Estrogen receptor beta [17]): 0.0912 µM (not active) | IC50 [19]: 18 µM (active) | IC50 [20]: 46.3 µM (active) | IC50 (Estrogen receptor): > 50 µM (not active) | IC50 (Estrogen receptor beta [18]): 6.74 µM (active)

O=C1C=C(Nc2ccc(Cl)cc2)CC(c2ccc(Cl)cc2)C1 (centres undefined)
IC50 (Beta-galactosidase): > 80 µM (inactive) | AC50 (Cytochrome P450 3A4): 20 µM (inconclusive)

O=C(/C=C/c1ccc(F)cc1)N1CCN(c2ccccn2)CC1
EC50 [21]: 2.94 µM (active) | IC50 (Beta-galactosidase): > 80 µM (inactive) | EC50 [22]: > 160 µM (inactive)

CC(=O)/C(C#N)=C1\NC(=O)C(Cc2ccc(C)c(Cl)c2)S1 (centres undefined)
IC50 (Vero [9]): 6.72 µM (active) | CC50 (Vero [10]): 20.6 µM (active)

C[C@H](CO)N1C[C@H](C)[C@@H](CN(C)S(=O)(=O)c2ccc(Cl)cc2)Oc2c(NC(=O)Nc3ccccc3)cccc2C1=O
AC50 [23]: 6.84 µM (active)

C[C@@H]1CN([C@@H](C)CO)C(=O)c2cccc(NC(=O)Nc3ccc(C(F)(F)F)cc3)c2O[C@H]1CN(C)S(=O)(=O)c1cccs1
AC50 [23]: 4.64 µM (active)

C[C@@H]1CCCCO[C@@H](CN(C)CC2CCCCC2)[C@@H](C)CN([C@H](C)CO)C(=O)c2cc(NC(=O)Nc3cccc4ccccc34)ccc2O1
AC50 [23]: 0.757 µM (active)

Cc1ccc(S(=O)(=O)Nc2ccc3c(c2)CC(=O)N([C@H](C)CO)C[C@@H](C)[C@H](CN(C)Cc2ccccc2)O3)cc1
AC50 [23]: 1.79 µM (active)

CCOC(=O)c1s/c(=N\C(=O)c2cccc(OC)c2)n(C)c1C
EC50 [2]: 11 µM (not active) | EC50 [3]: 15.2 µM (not active) | EC50 [4]: 10.5 µM (not active)

CC1=CCC(/C=N\Nc2n[nH]c3c4ccccc4nc-3n2)CC1 (centres undefined)
IC50 [1]: > 100 µM (active)
